Data: ChEMBL document CHEMBL3352736, “Synthesis and preliminary biological evaluation of new antiproliferative aromatic analogues of 1α,25-dihydroxyvitamin D3” (Eur J Med Chem, 2014)

test system: HL-60; test: […] of human HL60 cells incubated for 144 hrs by Wst-1 dye based assay; format: functional; settings: HL-60, 144 h

Structure (SMILES)	IC50
CC(C)CCC[C@@H](C)[C@H]1CC[C@H]2/C(=C/c3cccc(C(O)CCO)c3)CCC[C@]12C (some centres not stated)	5.4 µM
C[C@H](CC#CC(C)(C)O)[C@H]1CC[C@H]2/C(=C/c3cccc(CO)c3CO)CCC[C@]12C	> 100 µM
C[C@H](CCCC(C)(C)O)[C@H]1CC[C@H]2/C(=C/c3cccc(C(O)CCO)c3)CCC[C@]12C (some centres not stated)	1.4 µM
C[C@H](CC#CC(C)(C)O)[C@H]1CC[C@H]2/C(=C/c3cccc(C(O)CCO)c3)CCC[C@]12C (some centres not stated)	7.8 µM
CC(C)CCC[C@@H](C)[C@H]1CC[C@H]2/C(=C/c3ccc(CO)c(CO)c3)CCC[C@]12C	63.2 µM
CC(C)CCC[C@@H](C)[C@H]1CC[C@H]2/C(=C/c3cccc(CO)c3CO)CCC[C@]12C	32.4 µM
C[C@H](CC#CC(C)(C)O)[C@H]1CC[C@H]2/C(=C/c3ccc(CO)c(CO)c3)CCC[C@]12C	0.6 µM
